The values below come from patent US9216968B2, “Heterocyclic derivative and pharmaceutical drug” (NIPPON SHINYAKU CO., LTD., priority 2011, dated 2015).

The subject of one test is A549 cells. The test can be described thus: Inhibition of PGE2 production in A549 cell (IL-1β stimulated). Format: cell-based, human. The settings on record: IL-1β 5 ng/well, PGE2 in culture medium. The method, boiled down:
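After IL-1β (5 ng/well) stimulation for 24 h at 37 °C, following a 60-min compound pretreatment in RPMI with 3% FBS, medium PGE2 (HTRF) and PGF2α (EIA) from human A549 cells were quantified. 100% activity set as IL-1β-induced minus basal production; IC50 calculated.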

The target in the next test is human mPGES-1 (Homo sapiens (Human), UniProt O14684). The test can be described thus: mPGES-1 inhibiting activity (microsome fractions, PGE2 by HTRF). Format: biochemical. The settings on record: microsomes from CHO-K1 cells transfected with human mPGES-1; PGH2 1 μM, 4° C., 60 seconds; read-out: mPGES-1 Inhibition IC50. The method, boiled down:
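PGE2 formation read by HTRF after 60 s at 4 °C with 1 μM PGH2 substrate, following 20 min compound preincubation (1% DMSO) with human mPGES-1 microsomes from transfected CHO-K1 cells. Buffer: potassium phosphate, reduced glutathione, pH 7.4; IC50 from activity relative to enzyme-free blank.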

Counter-ions that a name gives are not always drawn.

human mPGES-1, sequence (O14684 whole entry): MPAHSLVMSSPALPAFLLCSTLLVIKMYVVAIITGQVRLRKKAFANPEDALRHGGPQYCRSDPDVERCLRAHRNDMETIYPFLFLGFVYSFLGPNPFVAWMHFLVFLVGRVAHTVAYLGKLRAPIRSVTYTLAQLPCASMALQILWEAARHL

`COCc1nc2c(C(=O)Nc3nc4ccc(Cl)cc4o3)cc(NC(=O)c3ccccc3C(F)(F)F)cc2[nH]1` [Example 233, N-(6-Chloro-1,3-benzoxazol-2-yl)-2-(methoxymethyl)-6-({[2-(trifluoromethyl)phenyl]carbonyl}amino)-1H-benzimidazole-4-carboxamide hydrochloride]: the IC50 in the test with A549 cells (Homo sapiens, A549, 24 h) worked out at 195 nM; on human mPGES-1, 2.5 nM.

In the case of `Cc1c(Cl)cccc1NC(=O)c1cc(NC(=O)c2ccccc2C(F)(F)F)cc2[nH]c([C@H]3CCCO3)nc12` [Example 64, N-(3-Chloro-2-methylphenyl)-2-[(2R)-tetrahydrofuran-2-yl]-6-({[2-(trifluoromethyl)phenyl]carbonyl}amino)-1H-benzimidazole-4-carboxamide hydrochloride], the IC50 worked out at 20.1 nM in the test with A549 cells (24 hours, hydrochloride) and 2.3 nM at human mPGES-1.

As to `Cc1ccc(NC(=O)c2cc(NC(=O)c3cc(Cl)ccc3Cl)cc3[nH]c(C4(C)CC4)nc23)cc1Cl` [Example 211, N-(3-Chloro-4-methylphenyl)-6-{[(2,5-dichlorophenyl)carbonyl]amino}-2-(1-methylcyclopropyl)-1H-benzimidazole-4-carboxamide hydrochloride], the IC50 with A549 cells (Homo sapiens, A549, 24 h) was 8.5 nM; at human mPGES-1 it was 2.5 nM.

As for `COCc1nc2c(C(=O)Nc3cccc(Br)c3C)cc(NC(=O)c3ccccc3C(F)(F)F)cc2[nH]1` [Example 38, N-(3-Bromo-2-methylphenyl)-2-(methoxymethyl)-6-({[2-(trifluoromethyl)phenyl]carbonyl}amino)-1H-benzimidazole-4-carboxamide], the IC50 is 17.4 nM in the test on A549 cells (Homo sapiens, A549, 24 h) and 6.6 nM on human mPGES-1.

Turning to `COCc1nc2c(C(=O)Nc3cccc(Cl)c3C)cc(NC(=O)c3cc(CCc4ccccc4)ccc3Cl)cc2[nH]1` [Example 123, N-(3-Chloro-2-methylphenyl)-6-({[2-chloro-5-(2-phenylethyl)phenyl]carbonyl}amino)-2-(methoxymethyl)-1H-benzimidazole-4-carboxamide hydrochloride], the IC50 in the test on A549 cells (Homo sapiens, A549, 24 h) was determined as 99.8 nM; on human mPGES-1 it was 8.7 nM.

Regarding `Cc1c(Cl)cccc1NC(=O)c1cc(NC(=O)c2ccccc2C(F)(F)F)cc2[nH]c(NCCN3CCOCC3)nc12` [Example 146, N-(3-Chloro-2-methylphenyl)-2-{[2-(morpholin-4-yl)ethyl]amino}-6-({[2-(trifluoromethyl)phenyl]carbonyl}amino)-1H-benzimidazole-4-carboxamide hydrochloride], the IC50 came to 129 nM in the test on A549 cells (Homo sapiens, A549, 24 h) and 3.1 nM at human mPGES-1.

As to `COCc1nc2c(C(=O)Nc3cccc(Cl)c3C)cc(NC(=O)c3cc(OCCOC(C)C)ccc3Cl)cc2[nH]1` [Example 114, N-(3-Chloro-2-methylphenyl)-6-[({2-chloro-5-[2-(propan-2-yloxy)ethoxy]phenyl}carbonyl)amino]-2-(methoxymethyl)-1H-benzimidazole-4-carboxamide hydrochloride], the IC50 in the test with A549 cells (Homo sapiens, A549, 24 h) turned out to be 8.8 nM; on human mPGES-1, 3.5 nM.

For the molecule `Cc1c(Cl)cccc1NC(=O)c1cc(NC(=O)c2ccccc2C(F)(F)F)cc2[nH]c(N3CCCC3)nc12` [Example 164, N-(3-Chloro-2-methylphenyl)-2-(pyrrolidin-1-yl)-6-({[2-(trifluoromethyl)phenyl]carbonyl}amino)-1H-benzimidazole-4-carb oxamide hydrochloride], the IC50 amounted to 13.3 nM in the test on A549 cells (Homo sapiens, A549, 24 h) and 0.3 nM at human mPGES-1.

As for `Cc1c(Cl)cccc1NC(=O)c1cc(NC(=O)c2ccccc2C(F)(F)F)cc2c1OCC2` [Example 8, N-(3-Chloro-2-methylphenyl)-5-({[2-(trifluoromethyl)phenyl]carbonyl}amino)-2,3-dihydro-1-benzofuran-7-carboxamide], the IC50 with A549 cells (Homo sapiens, A549, 24 h) came to 106 nM; at human mPGES-1, 160 nM.

Take `Cc1c(Cl)cccc1NC(=O)c1cc(NC(=O)c2ccccc2C(F)(F)F)cc2[nH]c(CN(C)C)nc12` [Example 58, N-(3-Chloro-2-methylphenyl)-2-[(dimethylamino)methyl]-6-({[2-(trifluoromethyl)phenyl]carbonyl}amino)-1H-benzimidazole-4-carboxamide hydrochloride]: the IC50 was found to be 157 nM in the test with A549 cells (Homo sapiens, A549, 24 h) and 5.4 nM on human mPGES-1.

For `COCC(C)(C)CN(C)c1nc2c(C(=O)Nc3cccc(Cl)c3C)cc(NC(=O)c3ccccc3C(F)(F)F)cc2[nH]1` [Example 173, N-(3-Chloro-2-methylphenyl)-2-[(3-methoxy-2,2-dimethylpropyl)(methyl)amino]-6-({[2-(trifluoromethyl)phenyl]carbonyl}amino)-1H-benzimidazole-4-carboxamide hydrochloride], the IC50 with A549 cells (Homo sapiens, A549, 24 h) was determined as 60.8 nM; at human mPGES-1, 1.1 nM.

As for `COCc1nc2c(C(=O)Nc3cccc(Cl)c3C)cc(NC(=O)c3c(C)cccc3Cl)cc2[nH]1` [Example 104, N-(3-Chloro-2-methylphenyl)-6-{[(2-chloro-6-methylphenyl)carbonyl]amino}-2-(methoxymethyl)-1H-benzimidazole-4-carboxamide hydrochloride], the IC50 with A549 cells (Homo sapiens, A549, 24 h) is 71.1 nM; at human mPGES-1, 2.9 nM.

`COCc1nc2c(C(=O)Nc3cccc(Cl)c3C)cc(NC(=O)c3cc(Cl)ccc3Cl)cc2[nH]1` [Example 99, N-(3-Chloro-2-methylphenyl)-6-{[(2,5-dichlorophenyl)carbonyl]amino}-2-(methoxymethyl)-1H-benzimidazole-4-carboxamide hydrochloride]: the IC50 in the test with A549 cells (Homo sapiens, A549, 24 h) came to 18.9 nM; on human mPGES-1, 3.7 nM.

Turning to `COCc1nc2c(C(=O)NC3CCC(F)(F)CC3)cc(NC(=O)c3ccccc3C(F)(F)F)cc2[nH]1` [Example 26, N-(4,4-Difluorocyclohexyl)-2-(methoxymethyl)-6-({[2-(trifluoromethyl)phenyl]carbonyl}amino)-1H-benzimidazole-4-carboxamide hydrochloride], the IC50 with A549 cells (Homo sapiens, A549, 24 h) worked out at 872 nM; at human mPGES-1, 172 nM.

For `Cc1c(Cl)cccc1NC(=O)c1cc(NC(=O)c2ccccc2C(F)(F)F)cc2[nH]c([S+](C)[O-])nc12` (centres unmarked) [Example 181, N-(3-Chloro-2-methylphenyl)-2-(methylsulfinyl)-6-({[2-(trifluoromethyl)phenyl]carbonyl}amino)-1H-benzimidazole-4-carboxamide], the half-inhibitory concentration (IC50) with A549 cells (Homo sapiens, A549, 24 h) was 705 nM; on human mPGES-1 it was 1.1 nM.

For the molecule `Cc1c(Cl)cccc1NC(=O)c1cc(NC(=O)c2ccccc2C(F)(F)F)cc2[nH]c([C@H]3CCC(=O)N3)nc12` [Example 131, N-(3-Chloro-2-methylphenyl)-2-[(2R)-5-oxopyrrolidin-2-yl]-6-({[2-(trifluoromethyl)phenyl]carbonyl}amino)-1H-benzimidazole-4-carboxamide hydrochloride], the IC50 is over 10000 nM in the test with A549 cells (Homo sapiens, A549, 24 h) and 32.8 nM on human mPGES-1.
